Key:
HeLa cells = experiment: Proliferation assay (Method 3), HeLa; format: cell-based; conditions: 96 h, human cervical tumour, 4 days, crystal violet, read-out: Inhibition of HeLa cell proliferation IC50
Description: (§1) Cultivated tumour cells (HeLa, human cervical tumour cells, ATCC CCL-2; NCI-H460, human non-small cell lung carcinoma cells, ATCC HTB-177; A2780, human ovarian carcinoma cells, ECACC #93112519; DU 145, hormone-independent human prostate carcinoma cells, ATCC HTB-81; HeLa-MaTu-ADR, multidrug-resistant human cervical carcinoma cells, EPO-GmbH Berlin; Caco-2, human colorectal carcinoma cells, ATCC HTB-37; B16F10, mouse melanoma cells, ATCC CRL-6475) were plated at a density of 5,000 cells/well (DU145, HeLa-MaTu-ADR), 3,000 cells/well (NCI-H460, HeLa), 2,500 cells/well (A2780), 1,500 cells/well (Caco-2), or 1,000 cells/well (B16F10) in a 96-well multititer plate in 200 μL of their respective growth medium supplemented 10% fetal calf serum. After 24 hours, the cells of one plate (zero-point plate) were stained with crystal violet (see below), while the medium of the other plates was replaced by fresh culture medium (200 μl), to which the test substances were added in various concentrations (0 μM, as well as in the range of 0.001-10 μM; the final concentration of the solvent dimethyl sulfoxide was 0.5%). The cells were incubated for 4 days in the presence of test substances. Cell proliferation was determined by staining the cells with crystal violet: the cells were fixed by adding 20 μl/measuring point of an 11% glutaric aldehyde solution for 15 minutes at room temperature. After three washing cycles of the fixed cells with water, the plates were dried at room temperature. The cells were stained by adding 100 μl/measuring point of a 0.1% crystal violet solution (pH 3.0). After three washing cycles of the stained cells with water, the plates were dried at room temperature. The dye was dissolved by adding 100 μl/measuring point of a 10% acetic acid solution. The extinction was determined by photometry at a wavelength of 595 nm. The change of cell number, in percent, was calculated by normalization of the measured values to the extinction values of the zero-point plate (=0%) and the extinction of the untreated (0 μm) cells (=100%). The IC50 values (inhibitory concentration at 50% of maximal effect) were determined by means of a 4 parameter fit.

Caco-2 cells = experiment: Proliferation assay (Method 3), Caco-2; format: cell-based; conditions: Caco-2, 96 h; human colorectal carcinoma, 4 days, crystal violet; read-out: Inhibition of Caco-2 cell proliferation IC50
Description: as §1

CDK2/CycE = molecular target: T1, CDK2/CycE (Homo sapiens, UniProt P24941); experiment: CDK2/CycE high ATP kinase assay (Method 2b, TR-FRET, 2 mM ATP); format: biochemical
T1 construct: GST; purchased ProQinase GmbH (Freiburg, Germany); host or cells: insect cells (Sf9)
Description: 2b. CDK2/CycE High ATP Kinase Assay
CDK2/CycE-inhibitory activity of compounds of the present invention at 2 mM adenosine-tri-phosphate (ATP) was quantified employing the CDK2/CycE TR-FRET (TR-FRET=Time Resolved Fluorescence Energy Transfer) assay as described in the following paragraphs.
Recombinant fusion proteins of GST and human CDK2 and of GST and human CycE, expressed in insect cells (Sf9) and purified by Glutathion-Sepharose affinity chromatography, were purchase from ProQinase GmbH (Freiburg, Germany). As substrate for the kinase reaction biotinylated peptide biotin-Ttds-YISPLKSPYKISEG (C-terminus in amid form) was used which can be purchased e.g. form the company JERINI peptide technologies (Berlin, Germany). […]
The resulting mixture was incubated 1 h at 22° C. to allow the formation of complex between the phosphorylated biotinylated peptide and the detection reagents. Subsequently the amount of phosphorylated substrate was evaluated by measurement of the resonance energy transfer from the Eu-chelate to the streptavidine-XL. Therefore, the fluorescence emissions at 620 nm and 665 nm after excitation at 350 nm wer measured in a TR-FRET reader, e.g. a Rubystar (BMG Labtechnologies, Offenburg, Germany) or a Viewlux (Perkin-Elmer). […]

A2780 cells = experiment: Proliferation assay (Method 3), A2780; format: cell-based; conditions: A2780, 96 h; human ovarian carcinoma, 4 days, crystal violet; read-out: Inhibition of A2780 cell proliferation IC50
Description: Cultivated tumour cells (HeLa, human cervical tumour cells, ATCC CCL-2; NCI-H460, human non-small cell lung carcinoma cells, ATCC HTB-177; A2780, human ovarian carcinoma cells, ECACC #93112519; DU 145, hormone-independent human prostate carcinoma cells, ATCC HTB-81; HeLa-MaTu-ADR, multidrug-resistant human cervical carcinoma cells, EPO-GmbH Berlin; Caco-2, human colorectal carcinoma cells, ATCC HTB-37; B16F10, mouse melanoma cells, ATCC CRL-6475) were plated at a density of 5,000 cells/well (DU145, HeLa-MaTu-ADR), 3,000 cells/well (NCI-H460, HeLa), 2,500 cells/well (A2780), 1,500 cells/well (Caco-2), or 1,000 cells/well (B16F10) in a 96-well multititer plate in 200 μL of their respective growth medium supplemented 10% fetal calf serum. […] Cell proliferation was determined by staining the cells with crystal violet: the cells were fixed by adding 20 μl/measuring point of an 11% glutaric aldehyde solution for 15 minutes at room temperature. […] The extinction was determined by photometry at a wavelength of 595 nm. The change of cell number, in percent, was calculated by normalization of the measured values to the extinction values of the zero-point plate (=0%) and the extinction of the untreated (0 μm) cells (=100%). […]

| IC50 (HeLa cells) [nM] | IC50 (Caco-2 cells) [nM] | IC50 (CDK2/CycE) [nM] | IC50 (A2780 cells) [nM] | Compound |
| --- | --- | --- | --- | --- |
| 68 | 61 |  |  | CS(=O)(=O)Cc1ccnc(Nc2cc(-c3cccc4ccoc34)c(F)cn2)c1 [Example 5, 4-(1-Benzofuran-7-yl)-5-fluoro-N-{4-[(methylsulfonyl)methyl]pyridin-2-yl}pyridin-2-amine] |
| 13 | 14 |  |  | CS(=O)(=O)Cc1cc(Nc2cc(-c3ccc(F)c4ccoc34)c(F)cn2)nc(C(F)(F)F)c1 [Example 4, 5-Fluoro-4-(4-fluoro-1-benzofuran-7-yl)-N-{4-[(methylsulfonyl)methyl]-6-(trifluoromethyl)pyridin-2-yl}pyridin-2-amine] |
| 12 | 12 |  |  | Cc1cc(CS(C)(=O)=O)cc(Nc2cc(-c3ccc(F)c4ccoc34)c(F)cn2)n1 [Example 3, 5-Fluoro-4-(4-fluoro-1-benzofuran-7-yl)-N-{6-methyl-4-[(methylsulfonyl)methyl]pyridin-2-yl}pyridin-2-amine] |
| 6 | 40 | 535 |  | CS(=O)(=O)Cc1ccnc(Nc2cc(-c3ccc(F)c4ccoc34)c(F)cn2)c1 [Example 1, 5-Fluoro-4-(4-fluoro-1-benzofuran-7-yl)-N-{4-[(methylsulfonyl)methyl]pyridin-2-yl}pyridin-2-amine] |
| 40 | 37 | 517 | 24 | CS(=O)(=O)Cc1cc(F)nc(Nc2cc(-c3ccc(F)c4ccoc34)c(F)cn2)c1 [Example 2, 5-Fluoro-4-(4-fluoro-1-benzofuran-7-yl)-N-{6-fluoro-4-[(methylsulfonyl)methyl]pyridin-2-yl}pyridin-2-amine] |

Source: US9856242B2, “5-fluoro-N-(pyridin-2-yl)pyridin-2-amine derivatives containing a sulfone group” (Bayer Pharma Aktiengesellschaft, priority 2014, dated 2018)
